This is an account of results in US5925549A, “Soluble 7-transmembrane domain G-protein-coupled receptor compositions and methods” (The Board of Trustees of the Leland Stanford Junior …, priority 1997, dated 1999).

The subject of assay [1] is rat testis cells. The assay can be described thus: Testis cell apoptosis, DNA fragmentation by 3' end-labeling and in situ analysis (Apotag kit). In kind it is in vivo. The settings on record: immature male rats; GnRH antagonist 50 μg/rat; 2 days; FIG. 5C; comparable to FBP-treated group. The protocol: (§1) Two days after the initial injection, the testis were weighed and testis cell apoptosis was quantitated using a 3' end-labeling method (Tapanainen,et al., 1993). The effects of FBP were also assayed using in situ analysis of specific cell types undergoing apoptosis with the "APOTAG" kit (Oncor, Gaithersburg, Md.) as previously described (Billig, et al., 1995).
Some animals were treated with a potent gonadotropin releasing hormone (GnRH) antagonist (Org30850: Acetyl-D-parachloro-Phe (AcDpCl-Phe), D-parachloro-Phe (DpCl-Phe), D-Bal, DLys, DAla-amide; (AcDpCl)Phe1 - (DpCl)Phe2 - D-Bal3 - DLys6 -DAla10(amide) (SEQ ID NO:5; D refers to D (not L) amino acids); 50 μg/rat, FIG. 5C (ANT); Decker, et al., 1992) to suppress pituitary release of LH and FSH (Decker, et al., 1992) whereas others were treated with conditioned media of SF9 cells infected with wild type baculovirus. In situ analysis of specific cell types undergoing apoptosis was performed using Apotag kit (Oncor, Gaithersburg, MD) as previously described (Billig, et al., 1995). Animal care was in accordance with institutional guidelines.

In assay [2] the test system is immature male rats (testis growth). In words: Testis weight in immature male rats after 2 days of treatment. Format: in vivo. The settings on record: 21 days of age, GnRH antagonist 50 μg/rat, testes weighed two days after initial injection, untreated 192±28 mg. The protocol:
Immature male rats (21 days of age, weighing between about 45 and 50 g) were injected subcutaneously (s.c.) every 6h for a period of 2 days with 1 ml conditioned media of SF9 cells (10^8 cells equivalent/injection) containing solubilized FSH receptor fragments prepared as described above. The concentration of soluble receptor protein in the injection volume was between about 30 and 100 μg/ml. The effective dose administered every 6 hours was therefore between […].
as §1
Some animals were treated with a potent gonadotropin releasing hormone (GnRH) antagonist (Org30850: Acetyl-D-parachloro-Phe (AcDpCl-Phe), D-parachloro-Phe (DpCl-Phe), D-Bal, DLys, DAla-amide; (AcDpCl)Phe1 - (DpCl)Phe2 - D-Bal3 - DLys6 -DAla10(amide) (SEQ ID NO:5; D refers to D (not L) amino acids); 50 μg/rat, FIG. 5C (ANT); Decker, et al., 1992) to suppress pituitary release of LH and FSH (Decker, et al., 1992) whereas others were treated with conditioned media of SF9 cells infected with wild type baculovirus. […]

For the substance “Acetyl-D-parachloro-Phe (AcDpCl-Phe), D-parachloro-Phe (DpCl-Phe), D-Bal, DLys, DAla-amide; (AcDpCl)Phe1 - (DpCl)Phe2 - D-Bal3 - DLys6 -DAla10(amide) [ANT]”, in assay [1], the “apoptotic DNA fragmentation in testis cells” value was “increases in apoptotic DNA fragmentation”. For the same substance, the testis weight in assay [2] is 140 ± 18 mg.
